{"source": "patent US20090131343A1", "about": "“USE OF BRIDGED MACROLIDES OR TYLOSIN DERIVATIVES IN TREATING INFLAMMATORY BOWEL DISEASES” (priority 2007, published 2009)", "test_system": "NFkB", "test": "In vitro inflammatory assay: TNFα-induced NFkB luciferase reporter in Jurkat cells", "format": "cell-based", "conditions": "for IC50 / inhibition at 120 µM: Homo sapiens; for IC50: read-out: IC50 (μM), in vitro inflammatory data (inhibition of NFkB activity)", "experimental": "I. Protocol for In Vitro Inflammatory Assay:\n• 1. Jurkat cell line expressing a luciferase reporter under the control of an NFkB promoter sequence was created. Clones were isolated using G418 and then characterized for enhanced luciferase activity following stimulation of cells with either TNFα or PMA+Ionomycin. • 2. Assay protocol was as follows: • Day 1: Cells were split to a density of 1.1×10^5 cells/mL. • Day 2: • Cells were adjusted to a density of 2×10^5/mL. • 100 μl of cells were added to each well of a 96-well plate. • Test compounds were diluted to 200 μg/mL in media (1% DMSO). • 100 μl of diluted test compound was added to cells. Final test compound concentration from […] was added and the final DMSO concentration=0.5%. Compounds were tested in duplicate. • Plates were incubated 1 hour at 37° C. • 10 μl of a 2.1 nM TNFα solution was added to each well. Plates were returned to 37° C. for another 4 hours. • TNFα-induced luciferase activity was determined using commercially available kits and a microplate luminometer. • Inhibition of NFkB activity was determined by comparing luciferase activity from test compound-treated cells to luciferase activity in 0.5% DMSO-treated (control) cells.", "key": {"[1]": {"conditions": "Jurkat NFkB-luciferase reporter cells, TNFα stimulation, 1 hour preincubation + 4 hours"}, "[2]": {"conditions": "Jurkat NFkB-luciferase reporter cells, TNFα stimulation"}}, "data": [{"smiles": "C=CCOC1C(C)OC(O[C@H]2[C@@H](CC=O)C[C@@H](C)C(=O)/C=C/C=C/C[C@@H](C)OC(=O)/C=C/[C@@H]2OC)C(O)C1N(C)C", "note": "(stereo partly shown) [Entry 8]", "values": [{"measurement": "IC50", "setting": "[1]", "result": 41, "unit": "µM"}]}, {"smiles": "CC[C@H]1OC(=O)[C@H](C)[C@@H](C)[C@H](C)[C@H](OC2O[C@H](C)C[C@H](N(C)C)[C@@H]2OC(=O)c2ccccc2)[C@](C)(O)C[C@H](C)/C(=N\\OCOCCN2CCN(c3ccccc3)CC2)[C@@H](C)[C@H](O)[C@@]1(C)O", "note": "(stereo partly shown) [Entry 10]", "values": [{"measurement": "IC50", "setting": "[1]", "result": 30, "unit": "µM"}]}, {"smiles": "CC[C@@H]1OC(=O)C[C@H](O)[C@@H](C)[C@H](OC2O[C@H](C)[C@H](OC(C)=O)[C@H](N(C)C)[C@@H]2OC(C)=O)[C@H](CCO)C[C@H](C)C(=O)/C=C/C(C)=C/[C@@H]1CO[Si](C)(C)C(C)(C)C", "note": "(stereo partly shown) [Entry 11]", "values": [{"measurement": "IC50", "setting": "[1]", "result": 22, "unit": "µM"}]}, {"smiles": "CC[C@H]1OC(=O)C[C@@H](O)[C@H](C)[C@@H](OC2O[C@H](C)[C@@H](OC(=O)c3ccccc3)[C@H](C(C)C)[C@H]2OC(=O)c2ccccc2)[C@@H](CC=O)C[C@@H](C)C(=O)/C=C/C(C)=C/[C@@H]1CO", "note": "(stereo partly shown) [Entry 12]", "values": [{"measurement": "IC50", "setting": "[1]", "result": 17, "unit": "µM"}]}, {"smiles": "CC[C@H]1OC(=O)[C@H](C)[C@@H](O[C@H]2C[C@@](C)(OC)[C@@H](O)[C@H](C)O2)[C@H](C)[C@@H](O[C@@H]2O[C@H](C)C[C@H](N(C)C)[C@H]2O)[C@](C)(O)C[C@@H](C)C(=O)[C@H](C)[C@@H](O)[C@]1(C)O", "note": "[Erythromycin]", "values": [{"measurement": "IC50 (μM), in vitro inflammatory data (inhibition of NFkB activity)", "setting": "[1]", "result": "Inactive"}]}, {"smiles": "CO[C@@H]1[C@@H](O[C@@H]2O[C@H](C)[C@@H](O[C@H]3C[C@@](C)(O)[C@@H](OC(=O)CC(C)C)[C@H](C)O3)[C@H](N(C)C)[C@H]2O)[C@@H](CC=O)C[C@@H](C)[C@@H](O)/C=C/C=C/C[C@@H](C)OC(=O)C[C@H]1OC(C)=O", "note": "[Josamycin]", "values": [{"measurement": "IC50", "setting": "[1]", "result": "> 120", "unit": "µM"}, {"measurement": "inhibition at 120 µM", "setting": "[2]", "result": "~20", "unit": "%"}]}, {"smiles": "CC[C@H]1OC(=O)C[C@@H](O)[C@H](C)[C@@H](O[C@@H]2O[C@H](C)[C@@H](O[C@H]3C[C@@](C)(O)[C@@H](O)[C@H](C)O3)[C@H](N(C)C)[C@H]2O)[C@@H](CC=O)C[C@@H](C)C(=O)/C=C/C(C)=C/[C@@H]1CO[C@@H]1O[C@H](C)[C@@H](O)[C@@H](OC)[C@H]1OC", "note": "[Tylosin]", "values": [{"measurement": "IC50", "setting": "[1]", "result": "> 120", "unit": "µM"}, {"measurement": "inhibition at 120 µM", "setting": "[2]", "result": "~20", "unit": "%"}]}, {"smiles": "CC[C@H]1OC(=O)C[C@@H](O)[C@H](C)[C@@H](O[C@@H]2O[C@H](C)[C@@H](OC(=O)c3ccccc3)[C@H](N(C)C)[C@H]2OC(=O)c2ccccc2)[C@@H](CC=O)C[C@@H](C)C(=O)/C=C/C(C)=C/[C@@H]1CO", "note": "[compound (3)]", "values": [{"measurement": "activity in vitro inflammatory assay compared with Erythromycin, Clarithromycin, Josamycin and Tylosin", "setting": "comparison in words", "result": "improved activity"}]}]}
